# Test system: Jurkat T cells
# Assay: mRNA sequencing of activated Jurkat T cells
# Assay type: cell-based, human
structure (smiles),measurement,setting,value
"C=CC[C@@H]1/C=C(\C)C[C@H](C)C[C@H](OC)[C@H]2O[C@@](O)(C(=O)C(=O)N3CCCC[C@H]3C(=O)O[C@H](/C(C)=C/[C@@H]3CC[C@@H](O)[C@H](OC)C3)[C@H](C)[C@@H](O)CC1=O)[C@H](C)C[C@@H]2OC [FK506, Tacrolimus, reference compound]",GPR108 FPKM,P+I,31.682 FPKM
same,GPR183 FPKM,P+I,5.776 FPKM
same,GRAP2 FPKM,P+I,19.094 FPKM
same,GRK5 FPKM,P+I,8.481 FPKM
same,GZMH FPKM,P+I,7.694 FPKM
same,HAPLN3 FPKM,P+I,48.4 FPKM
same,HDC FPKM,P+I,26.3 FPKM
same,HHIP FPKM,P+I,9.345 FPKM
same,HHIP-AS1 FPKM,P+I,32.468 FPKM
same,HIVEP2 FPKM,P+I,7.494 FPKM
same,HSP90B1 FPKM,P+I,877.39 FPKM
same,HSP90B2P FPKM,P+I,8.45 FPKM
same,HSPA5 FPKM,P+I,373.499 FPKM
same,ICAM1 FPKM,P+I,12.704 FPKM
same,ID2 FPKM,P+I,13.425 FPKM
same,IER2 FPKM,P+I,181.539 FPKM
same,IER3 FPKM,P+I,31.73 FPKM
same,IFFO2 FPKM,P+I,2.752 FPKM
same,IFIH1 FPKM,P+I,11.544 FPKM
same,IFNG FPKM,P+I,3.8 FPKM
same,IGLL1 FPKM,P+I,3.429 FPKM
same,IGSF9B FPKM,P+I,7.175 FPKM
same,IL2RA FPKM,P+I,5.833 FPKM
same,IL3 FPKM,P+I,0.062 FPKM
same,IL4I1 FPKM,P+I,7.078 FPKM
same,IL16 FPKM,P+I,10.552 FPKM
same,IL22 FPKM,P+I,3.116 FPKM
same,IL23A FPKM,P+I,12.207 FPKM
same,IMPA2 FPKM,P+I,3.015 FPKM
same,IRF8 FPKM,P+I,1.19 FPKM
same,IRF9 FPKM,P+I,39.109 FPKM
same,ISM1 FPKM,P+I,0.726 FPKM
same,JAK3 FPKM,P+I,8.03 FPKM
same,JUN FPKM,P+I,3.835 FPKM
same,JUNB FPKM,P+I,55.036 FPKM
same,KBTBD11 FPKM,P+I,2.434 FPKM
same,KCNK5 FPKM,P+I,3.906 FPKM
same,KCTD11 FPKM,P+I,3.399 FPKM
same,KIAA0922 FPKM,P+I,12.92 FPKM
same,KIF1B FPKM,P+I,11.727 FPKM
same,KIF3B FPKM,P+I,13.87 FPKM
same,KLF2 FPKM,P+I,1.971 FPKM
same,KSR1 FPKM,P+I,4.79 FPKM
same,LAIR2 FPKM,P+I,2.203 FPKM
same,LAMP3 FPKM,P+I,6.412 FPKM
same,LAX1 FPKM,P+I,8.052 FPKM
same,LDLRAP1 FPKM,P+I,0.778 FPKM
same,LIME1 FPKM,P+I,15.749 FPKM
same,LINC00152 FPKM,P+I,32.822 FPKM
same,LINC00426 FPKM,P+I,1.041 FPKM
same,LINC00528 FPKM,P+I,5.759 FPKM
same,LINC00539 FPKM,P+I,5.004 FPKM
same,LINC00977 FPKM,P+I,0.741 FPKM
same,LOC729603 FPKM,P+I,2.179 FPKM
same,LRRC8B FPKM,P+I,3.555 FPKM
same,LRRC45 FPKM,P+I,4.142 FPKM
same,LYPD3 FPKM,P+I,2.727 FPKM
same,MAP2K3 FPKM,P+I,41.815 FPKM
same,MAP2K6 FPKM,P+I,1.149 FPKM
same,MBOAT2 FPKM,P+I,3.773 FPKM
same,MCM4 FPKM,P+I,26.368 FPKM
same,MCM5 FPKM,P+I,37.057 FPKM
same,METRNL FPKM,P+I,7.501 FPKM
same,MIR221 FPKM,P+I,10.429 FPKM
same,MIR4435-1HG FPKM,P+I,17.138 FPKM
same,MIR6891 FPKM,P+I,24.428 FPKM
same,MMP10 FPKM,P+I,11.973 FPKM
same,MRPL39 FPKM,P+I,132.452 FPKM
same,MYO1D FPKM,P+I,4.59 FPKM
same,MYO1G FPKM,P+I,98.59 FPKM
same,MYO7B FPKM,P+I,15.796 FPKM
same,NAMPT FPKM,P+I,34.628 FPKM
same,NDFIP1 FPKM,P+I,22.485 FPKM
same,NDFIP2 FPKM,P+I,13.13 FPKM
same,NDST3 FPKM,P+I,10.369 FPKM
same,NEIL3 FPKM,P+I,9.418 FPKM
same,NEXN FPKM,P+I,3.661 FPKM
same,NFE2L3 FPKM,P+I,15.944 FPKM
same,NFKBIA FPKM,P+I,39.193 FPKM
same,NFKBID FPKM,P+I,6.668 FPKM
same,NFKBIE FPKM,P+I,11.399 FPKM
same,NINJ1 FPKM,P+I,11.769 FPKM
same,NKD2 FPKM,P+I,3.385 FPKM
same,NKX3-1 FPKM,P+I,7.464 FPKM
same,NLRC5 FPKM,P+I,38.784 FPKM
same,NPY FPKM,P+I,4.771 FPKM
same,NR4A1 FPKM,P+I,52.553 FPKM
same,NR4A2 FPKM,P+I,0.04 FPKM
same,NRROS FPKM,P+I,36.775 FPKM
same,NT5M FPKM,P+I,1.582 FPKM
same,NXN FPKM,P+I,2.574 FPKM
same,OAS3 FPKM,P+I,13.085 FPKM
same,OSBPL3 FPKM,P+I,24.517 FPKM
same,PARP9 FPKM,P+I,84.306 FPKM
same,PARP14 FPKM,P+I,65.432 FPKM
same,PCBP3 FPKM,P+I,4.527 FPKM
same,PDE3B FPKM,P+I,9.108 FPKM
same,PEAK1 FPKM,P+I,5.442 FPKM
same,PELI1 FPKM,P+I,8.175 FPKM
same,PHEX FPKM,P+I,0.213 FPKM
same,PHF7 FPKM,P+I,3.968 FPKM
same,PHLDA1 FPKM,P+I,65.703 FPKM
same,PIDD1 FPKM,P+I,5.28 FPKM
same,PIM3 FPKM,P+I,42.827 FPKM
same,PKIA FPKM,P+I,13.962 FPKM
same,PLAU FPKM,P+I,45.171 FPKM
same,PLEKHO1 FPKM,P+I,47.519 FPKM
same,PLK3 FPKM,P+I,5.257 FPKM
same,PMAIP1 FPKM,P+I,26.095 FPKM
same,PMEPA1 FPKM,P+I,3.548 FPKM
same,PODXL FPKM,P+I,1.86 FPKM
same,POU3F2 FPKM,P+I,1.044 FPKM
same,PPFIBP1 FPKM,P+I,12.205 FPKM
same,PPM1H FPKM,P+I,4.492 FPKM
same,PRKCA FPKM,P+I,14.104 FPKM
same,PTK2 FPKM,P+I,13.215 FPKM
same,PTPN22 FPKM,P+I,6.37 FPKM
same,PTPRE FPKM,P+I,14.031 FPKM
same,PWWP2B FPKM,P+I,2.769 FPKM
same,PXMP2 FPKM,P+I,5.624 FPKM
same,RAG1 FPKM,P+I,0.251 FPKM
same,RAG2 FPKM,P+I,0.173 FPKM
same,RAP1GAP2 FPKM,P+I,0.368 FPKM
same,RAP1GAP FPKM,P+I,1.878 FPKM
same,RDH10 FPKM,P+I,5.856 FPKM
same,REL FPKM,P+I,4.749 FPKM
same,RELB FPKM,P+I,29.337 FPKM
same,RGS3 FPKM,P+I,2.142 FPKM
same,RGS16 FPKM,P+I,1.172 FPKM
same,RMI1 FPKM,P+I,8.984 FPKM
same,RORB FPKM,P+I,3.782 FPKM
same,S1PR1 FPKM,P+I,0.737 FPKM
same,SAMD1 FPKM,P+I,15.561 FPKM
same,SECISBP2L FPKM,P+I,13.57 FPKM
same,SELPLG FPKM,P+I,5.062 FPKM
same,SEMA7A FPKM,P+I,26.567 FPKM
same,SERPINB2 FPKM,P+I,2.905 FPKM
same,SERPINE1 FPKM,P+I,6.785 FPKM
same,SH2B3 FPKM,P+I,13.899 FPKM
same,SH2D5 FPKM,P+I,1.469 FPKM
same,SH3BGRL3 FPKM,P+I,408.163 FPKM
same,SH3RF2 FPKM,P+I,27.941 FPKM
same,SHC4 FPKM,P+I,0.663 FPKM
same,SIT1 FPKM,P+I,48.56 FPKM
same,SIX6 FPKM,P+I,15.688 FPKM
same,SLC2A3 FPKM,P+I,45.525 FPKM
same,SLC2A4RG FPKM,P+I,2.367 FPKM
same,SLC7A5 FPKM,P+I,207.842 FPKM
same,SLC25A45 FPKM,P+I,3.26 FPKM
same,SLCO3A1 FPKM,P+I,3.481 FPKM
same,SLIT1 FPKM,P+I,2.6 FPKM
same,SMIM14 FPKM,P+I,7.677 FPKM
same,SOCS1 FPKM,P+I,9.708 FPKM
same,SOCS3 FPKM,P+I,8.922 FPKM
same,SOSTDC1 FPKM,P+I,8.472 FPKM
same,SPRY2 FPKM,P+I,16.882 FPKM
same,SREBF1 FPKM,P+I,14.076 FPKM
same,ST3GAL6-AS1 FPKM,P+I,9.039 FPKM
same,ST8SIA4 FPKM,P+I,11.077 FPKM
same,STARD4 FPKM,P+I,20.118 FPKM
same,STAT1 FPKM,P+I,611.139 FPKM
same,STAT5A FPKM,P+I,3.347 FPKM
same,STX11 FPKM,P+I,2.733 FPKM
same,SYTL1 FPKM,P+I,15.004 FPKM
same,TBC1D10C FPKM,P+I,23.871 FPKM
same,TBC1D20 FPKM,P+I,17.7 FPKM
same,TBX21 FPKM,P+I,24.784 FPKM
same,THY1 FPKM,P+I,3.994 FPKM
same,TIMP2 FPKM,P+I,1.948 FPKM
same,TM4SF1 FPKM,P+I,0.439 FPKM
same,TM7SF3 FPKM,P+I,29.483 FPKM
same,TMEM229B FPKM,P+I,6.813 FPKM
same,TMTC4 FPKM,P+I,2.677 FPKM
same,TNFRSF4 FPKM,P+I,2.933 FPKM
same,TNFRSF12A FPKM,P+I,8.559 FPKM
same,TNFRSF14 FPKM,P+I,12.35 FPKM
same,TNFSF9 FPKM,P+I,2.568 FPKM
same,TNRC6C FPKM,P+I,4.711 FPKM
same,TNS3 FPKM,P+I,0.678 FPKM
same,TRAF1 FPKM,P+I,11.176 FPKM
same,TRAT1 FPKM,P+I,7.968 FPKM
same,TRIM22 FPKM,P+I,2.908 FPKM
same,TSHR FPKM,P+I,1.535 FPKM
same,TSPAN2 FPKM,P+I,2.414 FPKM
same,TSPAN7 FPKM,P+I,44.718 FPKM
same,TTC28 FPKM,P+I,2.798 FPKM
same,TUBB2A FPKM,P+I,7.594 FPKM
same,TUBB3 FPKM,P+I,9.713 FPKM
same,UHRF1BP1L FPKM,P+I,7.474 FPKM
same,USP30-AS1 FPKM,P+I,6.464 FPKM
same,VANGL1 FPKM,P+I,9.553 FPKM
same,VASH2 FPKM,P+I,5.761 FPKM
same,VGF FPKM,P+I,59.749 FPKM
same,XAF1 FPKM,P+I,15.924 FPKM
same,XBP1 FPKM,P+I,43.828 FPKM
same,XYLB FPKM,P+I,1.506 FPKM
same,YBX2 FPKM,P+I,1.555 FPKM
same,ZC3H12A FPKM,P+I,13.36 FPKM
same,CD27 and CD70 expression,upon T-cell activation,inhibited CD27 and CD70
same,"RNA levels of representative T-cell activation markers (IL2, IL3, NFATC1, CCL4, CCL20, CXCL8)",upon T-cell activation,reduced RNA levels of representative T-cell activation markers

# — patent US20240376163A1, “PEPTIDE FOR INHIBITING CALCINEURIN AND USE THEREOF” (Seoul National University R&DB Foundation, priority 2023, published 2024)
